Assay [1] deals with Tyrosine-protein kinase JAK2 (Homo sapiens) (UniProt O60674). Briefly: Inhibition of JAK2 JH1catalytic domain (unknown origin) at 1 uM by Ambit Kinomescan binding assay relative to control.
In assay [2] the target is Activated CDC42 kinase 1 (Homo sapiens) (UniProt Q07912). The assay can be described thus: Inhibition of TNK2 (unknown origin) at 1 uM by Ambit Kinomescan binding assay relative to control.
Assay [3] concerns the target T1, Phosphatidylinositol 5-phosphate 4-kinase type-2 gamma (Homo sapiens) (UniProt Q8TBX8).
T1 sequence (whole entry): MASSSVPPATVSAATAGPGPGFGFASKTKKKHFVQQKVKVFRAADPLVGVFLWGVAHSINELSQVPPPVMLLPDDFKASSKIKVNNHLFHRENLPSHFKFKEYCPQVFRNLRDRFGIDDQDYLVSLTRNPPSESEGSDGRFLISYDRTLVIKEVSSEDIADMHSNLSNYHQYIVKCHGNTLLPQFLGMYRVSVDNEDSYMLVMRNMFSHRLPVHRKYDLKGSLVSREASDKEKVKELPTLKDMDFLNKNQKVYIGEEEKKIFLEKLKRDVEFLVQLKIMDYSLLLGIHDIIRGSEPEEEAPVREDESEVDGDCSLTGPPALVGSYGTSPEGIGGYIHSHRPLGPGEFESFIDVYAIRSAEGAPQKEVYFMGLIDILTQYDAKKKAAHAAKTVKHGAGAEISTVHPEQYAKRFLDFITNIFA
Briefly: Inhibition of PIP4K2C ATP labeling site harbouring TLVIKEVSSEDIADMHSNLSNYHQYIVK in human A-375 cells at 0.5 uM by KiNativ Profiling analysis relative to control. In kind it is cell-based.

A short description of assay [4]: Inhibition of TLK1/2 K2 labeling site in human Huh-7 cells at 10 uM by KiNativ Profiling analysis relative to control. To be noted: condition cancer.
In assay [5] the target is T2, NUAK family SNF1-like kinase 1 (Homo sapiens) (UniProt O60285).
T2 sequence (whole entry): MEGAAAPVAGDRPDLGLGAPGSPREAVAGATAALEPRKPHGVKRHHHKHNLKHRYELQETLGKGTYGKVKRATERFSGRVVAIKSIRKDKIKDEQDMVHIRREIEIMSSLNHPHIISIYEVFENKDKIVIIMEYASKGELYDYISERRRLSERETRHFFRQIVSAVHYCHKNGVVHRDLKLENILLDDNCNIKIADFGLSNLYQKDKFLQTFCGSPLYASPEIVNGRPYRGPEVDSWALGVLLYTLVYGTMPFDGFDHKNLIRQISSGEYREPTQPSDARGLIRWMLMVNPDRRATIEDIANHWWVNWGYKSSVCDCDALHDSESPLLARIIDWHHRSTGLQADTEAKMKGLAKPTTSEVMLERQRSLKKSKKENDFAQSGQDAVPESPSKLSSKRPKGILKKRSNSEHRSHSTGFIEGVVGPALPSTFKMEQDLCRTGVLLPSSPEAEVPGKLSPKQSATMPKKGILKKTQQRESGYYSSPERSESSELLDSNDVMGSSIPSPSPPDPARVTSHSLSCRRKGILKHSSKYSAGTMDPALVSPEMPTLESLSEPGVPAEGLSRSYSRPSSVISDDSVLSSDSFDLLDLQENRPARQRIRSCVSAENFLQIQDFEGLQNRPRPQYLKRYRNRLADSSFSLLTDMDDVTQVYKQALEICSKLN
The assay can be described thus: Inhibition of ARK5 (unknown origin) at 10 uM by Ambit Kinomescan binding assay.

For assay [6], the target named is Phosphorylase b kinase gamma catalytic chain, skeletal muscle/heart isoform (Homo sapiens) (UniProt Q16816). Briefly: Inhibition of PHKG1 (unknown origin) at 10 uM by Ambit Kinomescan binding assay.
The target in assay [7] is Serine/threonine-protein kinase 36 (Homo sapiens) (UniProt Q9NRP7). Briefly: Inhibition of STK36 (unknown origin) at 10 uM by Ambit Kinomescan binding assay relative to control; values are per cent of control.
For assay [8], the target named is T3, Mitogen-activated protein kinase kinase kinase 6 (Homo sapiens) (UniProt O95382).
T3 sequence (whole entry): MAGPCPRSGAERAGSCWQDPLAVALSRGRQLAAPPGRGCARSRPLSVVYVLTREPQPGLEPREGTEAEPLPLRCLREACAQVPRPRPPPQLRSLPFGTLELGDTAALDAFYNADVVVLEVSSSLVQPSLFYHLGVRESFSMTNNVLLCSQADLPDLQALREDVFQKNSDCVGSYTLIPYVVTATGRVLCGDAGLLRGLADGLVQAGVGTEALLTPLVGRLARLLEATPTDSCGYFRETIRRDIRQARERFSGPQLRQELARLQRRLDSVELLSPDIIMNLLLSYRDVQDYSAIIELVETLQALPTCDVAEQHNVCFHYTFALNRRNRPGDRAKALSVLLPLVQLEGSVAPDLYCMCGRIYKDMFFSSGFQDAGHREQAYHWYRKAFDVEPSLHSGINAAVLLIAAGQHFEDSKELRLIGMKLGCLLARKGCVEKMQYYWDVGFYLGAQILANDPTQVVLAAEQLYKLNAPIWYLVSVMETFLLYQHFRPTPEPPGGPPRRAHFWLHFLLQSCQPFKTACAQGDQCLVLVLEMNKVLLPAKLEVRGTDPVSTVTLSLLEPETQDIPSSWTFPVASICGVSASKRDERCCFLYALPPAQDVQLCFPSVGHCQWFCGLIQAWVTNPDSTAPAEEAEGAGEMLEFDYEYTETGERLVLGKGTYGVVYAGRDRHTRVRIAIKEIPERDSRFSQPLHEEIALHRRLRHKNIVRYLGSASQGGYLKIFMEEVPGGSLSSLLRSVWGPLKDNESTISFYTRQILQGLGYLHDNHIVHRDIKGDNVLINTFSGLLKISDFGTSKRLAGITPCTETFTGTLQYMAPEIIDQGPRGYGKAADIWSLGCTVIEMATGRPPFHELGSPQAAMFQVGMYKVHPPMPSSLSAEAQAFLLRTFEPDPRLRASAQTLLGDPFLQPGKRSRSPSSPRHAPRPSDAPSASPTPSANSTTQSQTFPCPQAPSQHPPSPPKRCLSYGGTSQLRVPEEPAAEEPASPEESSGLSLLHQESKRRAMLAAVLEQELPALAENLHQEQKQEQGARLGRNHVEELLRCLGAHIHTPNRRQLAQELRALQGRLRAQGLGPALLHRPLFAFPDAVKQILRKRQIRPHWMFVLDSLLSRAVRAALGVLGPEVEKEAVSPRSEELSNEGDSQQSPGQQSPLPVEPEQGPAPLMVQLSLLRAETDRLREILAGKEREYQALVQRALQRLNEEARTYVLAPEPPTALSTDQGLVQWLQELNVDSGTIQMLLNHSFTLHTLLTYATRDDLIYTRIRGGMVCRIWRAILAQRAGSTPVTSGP
The assay can be described thus: Inhibition of MAP3K6 Lys1 labeling site harbouring IAIKEIPER in human A-375 cells at 0.05 uM by KiNativ Profiling analysis relative to control. In kind it is cell-based.

Assay [9] addresses Tyrosine-protein kinase CSK (Homo sapiens, UniProt P41240). Briefly: Inhibition of CSK ACT labeling site harbouring VSDFGLTKEASSTQDTGK in human Huh-7 cell lysate at 1 uM by KiNativ Profiling analysis relative to control. In kind it is subcellular.

The source made the active and inactive calls. The rule behind the calls is not given here.

Inhibition and residual activity data for three molecules are collected here from ChEMBL document CHEMBL5696442, “Discovery of type II inhibitors of TGFβ-activated kinase 1 (TAK1) and mitogen-activated protein kinase kinase kinase kinase 2 (MAP4K2)” (J Med Chem, 2015).

Phosphorylase b kinase gamma catalytic chain, skeletal muscle/heart isoform (Homo sapiens), sequence (Q16816 whole entry, looked up, canonical isoform): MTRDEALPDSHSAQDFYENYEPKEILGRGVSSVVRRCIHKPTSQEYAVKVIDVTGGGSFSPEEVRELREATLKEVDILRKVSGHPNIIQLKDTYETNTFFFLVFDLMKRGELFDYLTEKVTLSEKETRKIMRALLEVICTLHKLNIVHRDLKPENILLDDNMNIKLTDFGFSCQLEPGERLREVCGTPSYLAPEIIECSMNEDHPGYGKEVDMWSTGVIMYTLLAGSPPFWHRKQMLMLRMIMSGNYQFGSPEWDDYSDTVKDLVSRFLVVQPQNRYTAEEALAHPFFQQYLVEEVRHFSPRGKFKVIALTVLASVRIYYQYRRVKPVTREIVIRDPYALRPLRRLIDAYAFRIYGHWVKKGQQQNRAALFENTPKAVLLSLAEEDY
Tyrosine-protein kinase CSK, sequence (P41240 2-450 limits assumed): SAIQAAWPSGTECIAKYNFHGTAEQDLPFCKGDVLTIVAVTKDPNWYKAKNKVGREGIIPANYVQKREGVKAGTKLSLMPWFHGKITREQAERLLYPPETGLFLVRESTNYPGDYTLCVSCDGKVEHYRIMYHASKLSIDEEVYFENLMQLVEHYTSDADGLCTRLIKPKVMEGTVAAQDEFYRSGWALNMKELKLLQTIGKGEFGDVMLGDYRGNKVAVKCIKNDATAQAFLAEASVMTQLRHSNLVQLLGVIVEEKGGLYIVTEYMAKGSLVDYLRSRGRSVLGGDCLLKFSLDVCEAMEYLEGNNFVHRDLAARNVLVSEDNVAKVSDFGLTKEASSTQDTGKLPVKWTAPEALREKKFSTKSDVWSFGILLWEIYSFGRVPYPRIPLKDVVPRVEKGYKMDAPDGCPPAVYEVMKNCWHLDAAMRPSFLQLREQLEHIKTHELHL
Tyrosine-protein kinase JAK2 (Homo sapiens), sequence (O60674 whole entry, the tested form may be a part): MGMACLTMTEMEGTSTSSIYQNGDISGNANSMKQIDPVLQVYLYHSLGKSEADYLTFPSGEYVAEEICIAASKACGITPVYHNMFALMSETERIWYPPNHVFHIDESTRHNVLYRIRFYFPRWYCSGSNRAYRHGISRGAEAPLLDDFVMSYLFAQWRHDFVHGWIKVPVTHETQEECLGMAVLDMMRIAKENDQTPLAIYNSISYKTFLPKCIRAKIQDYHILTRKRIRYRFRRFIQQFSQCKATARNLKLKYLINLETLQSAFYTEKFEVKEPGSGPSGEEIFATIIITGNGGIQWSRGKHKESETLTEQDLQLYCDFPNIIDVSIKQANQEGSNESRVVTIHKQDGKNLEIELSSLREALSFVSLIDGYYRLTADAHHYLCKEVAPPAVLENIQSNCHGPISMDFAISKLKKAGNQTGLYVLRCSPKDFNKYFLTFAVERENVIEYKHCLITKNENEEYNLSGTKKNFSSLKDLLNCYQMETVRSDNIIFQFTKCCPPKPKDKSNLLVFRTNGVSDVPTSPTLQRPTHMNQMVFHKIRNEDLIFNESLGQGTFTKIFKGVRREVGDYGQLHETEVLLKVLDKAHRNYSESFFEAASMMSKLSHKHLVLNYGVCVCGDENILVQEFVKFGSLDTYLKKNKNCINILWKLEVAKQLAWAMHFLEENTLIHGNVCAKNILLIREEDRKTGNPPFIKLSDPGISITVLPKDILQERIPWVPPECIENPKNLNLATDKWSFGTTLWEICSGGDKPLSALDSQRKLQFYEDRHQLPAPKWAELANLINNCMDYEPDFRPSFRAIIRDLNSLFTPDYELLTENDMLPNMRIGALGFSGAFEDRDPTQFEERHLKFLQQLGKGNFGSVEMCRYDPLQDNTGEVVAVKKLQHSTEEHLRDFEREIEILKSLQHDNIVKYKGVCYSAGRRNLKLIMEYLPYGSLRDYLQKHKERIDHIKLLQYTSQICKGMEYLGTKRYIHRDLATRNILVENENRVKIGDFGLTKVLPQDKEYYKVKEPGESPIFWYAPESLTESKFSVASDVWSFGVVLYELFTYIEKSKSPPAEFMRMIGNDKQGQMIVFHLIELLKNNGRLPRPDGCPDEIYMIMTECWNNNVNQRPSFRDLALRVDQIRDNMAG
Serine/threonine-protein kinase 36 (Homo sapiens), sequence (Q9NRP7 whole entry): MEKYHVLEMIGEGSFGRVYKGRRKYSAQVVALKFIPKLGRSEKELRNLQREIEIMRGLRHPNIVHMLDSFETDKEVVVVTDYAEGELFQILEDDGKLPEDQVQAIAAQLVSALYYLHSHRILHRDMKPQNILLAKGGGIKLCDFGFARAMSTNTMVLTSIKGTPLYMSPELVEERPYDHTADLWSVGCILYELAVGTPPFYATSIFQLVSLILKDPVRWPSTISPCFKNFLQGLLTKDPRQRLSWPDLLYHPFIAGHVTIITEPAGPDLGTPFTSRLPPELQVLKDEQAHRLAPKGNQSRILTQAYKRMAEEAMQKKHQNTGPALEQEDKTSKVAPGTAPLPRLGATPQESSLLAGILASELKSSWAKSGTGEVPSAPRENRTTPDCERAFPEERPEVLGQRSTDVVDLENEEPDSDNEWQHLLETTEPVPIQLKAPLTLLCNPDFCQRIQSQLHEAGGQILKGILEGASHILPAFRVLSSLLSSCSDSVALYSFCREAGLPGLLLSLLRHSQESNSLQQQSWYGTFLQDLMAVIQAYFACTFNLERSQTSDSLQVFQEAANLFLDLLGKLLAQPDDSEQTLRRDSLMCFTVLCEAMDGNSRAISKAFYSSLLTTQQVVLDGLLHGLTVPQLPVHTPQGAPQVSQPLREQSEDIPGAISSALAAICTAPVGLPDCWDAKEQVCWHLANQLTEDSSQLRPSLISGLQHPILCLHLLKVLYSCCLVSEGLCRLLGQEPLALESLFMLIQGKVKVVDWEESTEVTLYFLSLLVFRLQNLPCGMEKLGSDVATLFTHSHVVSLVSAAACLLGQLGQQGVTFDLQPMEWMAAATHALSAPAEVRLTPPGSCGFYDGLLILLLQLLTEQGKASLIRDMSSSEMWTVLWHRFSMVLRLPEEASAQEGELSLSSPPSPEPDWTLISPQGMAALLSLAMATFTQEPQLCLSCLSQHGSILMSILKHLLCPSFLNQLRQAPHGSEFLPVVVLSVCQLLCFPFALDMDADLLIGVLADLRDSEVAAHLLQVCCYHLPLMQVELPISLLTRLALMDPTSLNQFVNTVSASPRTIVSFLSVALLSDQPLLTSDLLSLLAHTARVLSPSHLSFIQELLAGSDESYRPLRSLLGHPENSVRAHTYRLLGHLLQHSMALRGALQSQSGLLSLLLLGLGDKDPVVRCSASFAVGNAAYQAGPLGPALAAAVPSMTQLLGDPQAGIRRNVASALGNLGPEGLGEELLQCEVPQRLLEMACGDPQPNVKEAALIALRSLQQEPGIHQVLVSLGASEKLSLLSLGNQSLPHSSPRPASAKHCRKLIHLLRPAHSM
Activated CDC42 kinase 1 (Homo sapiens), sequence (Q07912 whole entry, looked up): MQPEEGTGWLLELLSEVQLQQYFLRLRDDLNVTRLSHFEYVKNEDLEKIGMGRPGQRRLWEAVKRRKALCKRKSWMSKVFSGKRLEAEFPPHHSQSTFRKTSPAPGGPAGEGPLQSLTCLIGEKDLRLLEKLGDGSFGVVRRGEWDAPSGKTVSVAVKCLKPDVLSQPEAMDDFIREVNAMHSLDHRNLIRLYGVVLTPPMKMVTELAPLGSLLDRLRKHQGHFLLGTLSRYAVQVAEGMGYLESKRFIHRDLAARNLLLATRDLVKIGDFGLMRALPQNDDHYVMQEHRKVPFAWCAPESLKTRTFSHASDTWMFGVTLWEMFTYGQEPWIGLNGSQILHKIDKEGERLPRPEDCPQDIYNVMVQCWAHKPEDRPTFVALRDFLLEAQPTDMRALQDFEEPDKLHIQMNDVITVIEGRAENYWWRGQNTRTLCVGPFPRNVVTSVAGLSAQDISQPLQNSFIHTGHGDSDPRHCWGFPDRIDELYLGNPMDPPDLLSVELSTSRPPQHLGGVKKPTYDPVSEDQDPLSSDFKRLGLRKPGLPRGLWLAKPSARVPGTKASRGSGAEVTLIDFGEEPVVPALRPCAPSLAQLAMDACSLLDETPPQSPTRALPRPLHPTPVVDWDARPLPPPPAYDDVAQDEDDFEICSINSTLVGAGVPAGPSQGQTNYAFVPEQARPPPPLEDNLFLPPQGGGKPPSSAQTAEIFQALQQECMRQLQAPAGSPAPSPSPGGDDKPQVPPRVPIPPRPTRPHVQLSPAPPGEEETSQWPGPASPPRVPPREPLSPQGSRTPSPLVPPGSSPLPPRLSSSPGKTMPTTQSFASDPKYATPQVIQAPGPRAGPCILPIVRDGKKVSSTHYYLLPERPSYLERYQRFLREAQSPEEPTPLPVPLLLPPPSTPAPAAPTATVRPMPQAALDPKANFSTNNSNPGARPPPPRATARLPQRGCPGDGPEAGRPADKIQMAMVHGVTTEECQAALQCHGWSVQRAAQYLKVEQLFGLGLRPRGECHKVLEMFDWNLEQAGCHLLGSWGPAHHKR

For `CCN1CCN(Cc2ccc(NC(=O)c3ccc(C)c(/C=C/c4cnc5[nH]ccc5c4OC)c3)cc2C(F)(F)F)CC1`, the inhibition (commonly the relative decrease from the control value, in per cent) in [1] worked out at 32%; in assay [2], 5.4%; in assay [3], 5.9%.

Take `CCN1CCN(Cc2ccc(NC(=O)c3ccc(C)c(Oc4ccnc5[nH]ccc45)c3)cc2C(F)(F)F)CC1`: the inhibition at 10 µM in [4] is -23.9%. Further, the inhibition result in [5] and in [6] was “inactive” in each case. The residual activity (in general, the signal under treatment as a percentage of the control signal) in assay [7] stood at 0.2%. The inhibition in [8] turned out to be 10.8%.

Take `CNc1cc(Oc2cc(C(=O)Nc3cc(N4CCN(C)CC4)cc(C(F)(F)F)c3)ccc2C)ncn1`: the inhibition in assay [9] came out at 7.9%.
